These results are taken from patent US10668049B2, “Methods of treating cognitive decline with transforming growth factor beta inhibitors” (The Regents of the University of California, priority 2008, dated 2020).

For one assay, the system named is TGF-β signaling pathway. The assay is described as follows: Microarray and real-time RT-PCR gene expression after in vivo albumin with or without TGF-βR blockers. Set-up: species or system rat. To be noted: albumin alone, 24 hours. The protocol: All experimental procedures were approved by the ethical committees dealing with experiments on animals at Charité University Medicine, Berlin and Ben-Gurion University of the Negev, Beer-Sheva. The in vivo experiments were performed as previously described (ivens et al., 2007; Seiffert et al., 2004). Adult male Wistar rats were treated with artificial cerebrospinal fluid (aCSF, composition in mM: 129 NaCl, 21 NaHCO3, 1.25 NaH2PO4, 1.8 MgSO4, 1.6 CaCl2, 3 KCl, 10 glucose) supplemented with deoxycholic acid (DOC, 2 mM, Sigma-Aldrich, Steinheim, Germany), bovine serum albumin (BSA, 0.1 mM. Merck, Darmstadt, Germany) corresponding to 25% of serum albumin concentration, or with TGF-β1 (10 ng/ml, Peprotech, Rocky Hill, N.J.). Sham-operated animals (perfused with aCSF) served as controls. […]
Total RNA was isolated using the TRIzol reagent (Invitrogen. Carlsbad, Calif.) and prepared using the Affymetrix GeneChip one-cycle target labeling kit (Affymetrix, Santa Clara, Calif.). […] Pairwise Pearson correlation coefficients for the three treatments were determined with Excel (Microsoft Corp., Richmond, Wash.). […]
mRNA expression levels were determined by quantitative reverse transcriptase-PCR by real-time kinetic analysis with an iQ5 detection system (Bio-Rad, Hercules, Calif.). Real-time PCR data were analyzed using the PCR Miner program (Zhao and Fernald, 2005). […]
Background: In qPCR the cycle at which signal appears reflects the starting amount.

For another assay, the system named is brain slices. The assay is described as follows: Field potentials during train stimulation in brain slices exposed to albumin in sACSF. To be noted: for field potential duration (at ⅓ maximal amplitude), 1st stimulus / field potential duration (at ⅓ maximal amplitude), 5th stimulus: treated. It counts as cell-based, rat. On the procedure:
For electrophysiological experiments, rats were deeply anesthetized with isoflurane and then decapitated. Brains were quickly removed, and transverse hippocampal-cortical slices ([…] thick) were prepared using a vibratome (Campden Instruments, Loughborough, UK). Slices were maintained in a humidified, carbogenated (5% CO2 and 95% O2) gas atmosphere at 36±1° C. and perfused with ACSF in a standard interface chamber (Seiffert et al., 2004; Ivens et al., 2007). To mimic the altered ionic environment during BBB disruption, recordings were acquired in a serum-adapted electrolyte solution (sACSF; see Seiffert et al. 2004). sACSF was similar in composition to the ACSF except for different concentrations of MgSO4 (0.8 mM), CaCl2 (1.3 mM), KCl (5.7 mM) and glutamine (1 mM). “Treated” slices were incubated with sACSF containing 0.1 mM bovine serum albumin for 2 h before transfer to the perfusion chamber.
Electrophysiological recordings were obtained 6-10 h following perfusion with sACSF. Control slices were treated similarly, using sACSF without albumin. For extracellular recordings, glass microelectrodes (˜3 MΩ, 154 mM NaCl) were positioned in layer 4 of the neocortex. Slices were stimulated with brief (100 μs) pulses, by using bipolar stimulation electrodes placed at the border between white and gray matter in the same conical column. Trains of 50 stimuli were applied at 2, 5, 10, 20, 50 and 100 Hz, at 2.5× threshold stimulation intensity. […] Extracellular potassium concentrations ([K+]o) were measured with ion-sensitive microelectrodes (ISMEs; Lux and Neher, 1973: Jauch et al., 2002).
The simulation data presented above predicted maximal EPSP facilitation at 20 Hz when [K^+]o clearance is reduced and decreased facilitation (at 50-100 Hz) when the only change induced is glutamate accumulation in the synaptic cleft. Field potentials in response to stimulation at various frequencies in brain slices during “epileptogenesis” (exposure to albumin in sACSF) compared to controls (sACSF alone) were therefore measured.

Where [1] appears, read: 100 Hz stimulation, treated (n=4).

Consider “albumin: bovine serum albumin, used to induce epileptogenesis”, for which, in the assay on TGF-β signaling pathway, the “NF-kappaB cascade, Jak-Stat cascade, and MAPKKK cascade expression” value is given as “upregulated”. Moreover, the “stimulation-induced long-lasting epileptiform discharges, slices showing them” value in the assay on brain slices (5 Hz stimulation) is on record as 2 of 4; in the assay with brain slices (10-Hz stimulation), 4 of 4; in the assay with brain slices (20 Hz stimulation) it was 3 of 4. The “field potential duration (at ⅓ maximal amplitude), 1st stimulus” value in the assay with brain slices (10 Hz) was determined as 6.5 ± 0.7 ms; with brain slices (20 Hz), 6.6 ± 0.8 ms. Moreover, the “field potential duration (at ⅓ maximal amplitude), 5th stimulus” value in the assay on brain slices (10 Hz) is 13.1 ± 2.6 ms; with brain slices (20 Hz), 12.9 ± 2.9 ms. Besides, the “field potential amplitude, 1st stimulus” value with brain slices (setting [1]) turned out to be 1.44±0.36 mV. In the assay on brain slices (setting [1]), the “field potential amplitude, 5th stimulus” value amounted to 0.47±0.09 mV.
